# Experimental data: patent publication US10463754B2, “Process for decontaminating or sterilizing an article” (priority 2014, dated 2019)
# Where two headings read alike, the source gives them in different places.
# System: spores of Bacillus subtilis
# Type: cell-based
# Description: The efficacy of the inventive process is assessed using a time kill suspension test method and spores of Bacillus subtilis.
# Peracetic acid (PAA) and hydrogen peroxide (H2O2) are prepared as concentrated stocks (3× concentrate). Each test contains 100 μl of the PAA concentrate and 100 μl of the H2O2 concentrate. Controls containing only PAA or H2O2 are also prepared. These contain 100 μl of either the PAA concentrate or H2O2 concentrate and 100 μl of de-ionized water. To each test, 100 μl of spores are added while starting the timer concurrently. The samples are mixed thoroughly. The temperature of the samples is room temperature. At the appropriate contact times, 10 μl of the appropriate test sample are placed into 90 μl of the appropriate neutralizing solution, mixed thoroughly and incubated for at least 10 minutes. Ten fold serial dilutions are prepared through 10^−6 and plated using the drop counting method. The plates are then incubated aerobically at 37° C. for 1-2 days. Following incubation, colony forming units (CFU) are counted using standard plate count techniques and converted to log 10 values for analysis.
SMILES,"Time (min) to achieve 4 log reduction (H2O2 0.10% by weight, PAA 0.00% (H2O2 alone), extrapolated from experimental data)","Time (min) to achieve 4 log reduction (H2O2 0.20% by weight, PAA 0.00% (H2O2 alone), extrapolated from experimental data)","Time (min) to achieve 4 log reduction (H2O2 0.40% by weight, PAA 0.00% (H2O2 alone), extrapolated from experimental data)","Time (min) to achieve 4 log reduction (H2O2 0.80% by weight, PAA 0.00% (H2O2 alone))","Time (min) to achieve 4 log reduction (H2O2 1.60% by weight, PAA 0.00% (H2O2 alone))","Time (min) to achieve 4 log reduction (H2O2 3.20% by weight, PAA 0.00% (H2O2 alone))","Time (min) to achieve 4 log reduction (H2O2 6.40% by weight, PAA 0.00% (H2O2 alone), room temperature)","Time (min) to achieve 4 log reduction (PAA 0.005% by weight, H2O2 0.00% (PAA alone), extrapolated from data for PAA 0.08, 0.16 and 0.32%)","Time (min) to achieve 4 log reduction (PAA 0.01% by weight, H2O2 0.00% (PAA alone), extrapolated from data for PAA 0.08, 0.16 and 0.32%)","Time (min) to achieve 4 log reduction (PAA 0.02% by weight, H2O2 0.00% (PAA alone), extrapolated from data for PAA 0.08, 0.16 and 0.32%)","Time (min) to achieve 4 log reduction (PAA 0.04% by weight, H2O2 0.00% (PAA alone), extrapolated from data for PAA 0.08, 0.16 and 0.32%)","Time (min) to achieve 4 log reduction (PAA 0.08% by weight, H2O2 0.00% (PAA alone))","Time (min) to achieve 4 log reduction (PAA 0.16% by weight, H2O2 0.00% (PAA alone))"
"OO [H2O2, hydrogen peroxide]",2305.13 min,1213.99 min,639.34 min,343.04 min,168.96 min,97.28 min,48.64 min,–,–,–,–,–,–
"CC(=O)OO [PAA, Peracetic acid]",–,–,–,–,–,–,–,711625 min,67744.68 min,6449.101 min,613.9362 min,70.40 min,4.64 min
